This note sets out measurements from US12569658B2, “Intranasal and olfactory delivery devices and methods of use” (Rocket Science Health Corp., priority 2023, dated 2026).

This data set is described as follows: Lateralized olfactory delivery of oxytocin via cannula into the right nostril; brain distribution by mass spectrometry imaging (MSI). Format: in vivo, Sprague-Dawley male rats. As to conditions: for Blue Pixel Count (intensity corresponding to oxytocin): 30 mg/kg, 25 μL into right nostril, 2 hours, pixels with B-value exceeding 180. On the procedure:
Sprague-Dawley male rats (150˜250 g) n=3 per time point×2 time points were used in this study. Animals were fasted per facility protocols (free access to water). Sedation by 50 mg/kg pentobarbital or equivalent procedure and maintenance with isoflurane. Test article administration: The animal is kept supine with the head kept at an angle to minimize movement of the olfactory plane above zero degrees (to prevent gravity drainage into the olfactory cleft). In this study Oxytocin (30 mg/kg) was delivered via the canulated olfactory delivery model which is: a 0.699 mm diameter cannula with lipophilic ointment spread on the catheter which is carefully inserted into the right nostril with a minimal angle of 20° to the target of the correct meatus. The left nostril is occluded with a non-toxic quick setting compound to prevent cross contamination. During insertion the catheter is rotated gently to advance it through the tight nasal cavity. Once the catheter reaches the ethmoid turbinate it cannot be advance gently anymore (˜15 mm). 25 μL of oxytocin is slowly instilled in the olfactory region (FIGS. 23A-B). The animals were kept sedated for 2 hours. After 2 hours, the animals were humanely euthanized by cervical dislocation. Sample collection: Olfactory bulb and brain: Rats olfactory bulb and brain were collected and snap-freeze in liquid nitrogen. The tissue was stored at −80 C until analysis. Sample Preparation: Olfactory bulb and brain samples was homogenized with ice-cold phosphate buffer saline (pH 7.4) at a ratio of 4 (buffer): 1 (tissue) (v/w). An aliquot of 20 μL homogenate was spiked into 1.5 mL tube, and 100 μL of acetonitrile containing internal standard were added for protein precipitation. The mixture was vortexed, centrifuged at 14000 rpm for 5 min. 80 μL supernatant was transferred into a 96 well plate, and 240 μL of sterile deionized water was added, the mixture was vortexed and injected for LC-MS/MS analysis.
Sample analysis: Test compound in olfactory bulb, brain, and plasma samples will be analyzed by LC/MS/MS. Calibration curve was constructed in blank olfactory bulb homogenate. Using a High-throughput RapifleX MALDI-TOF/TOF mass spectrometer the samples were analyzed utilizing non-labeled detection technologies. This is important as this technique explores the regional distribution patterns of target molecule (FIG. 24). The frozen section of brain tissue was cut into 12 μm sections. Oxytocin at 200, […], 50, 20, 10, 5, 2 ng were used as standard in blank brain slide. And substrate were sprayed on the slides. The sample of the tissue section was ionized and desorbed with the substrate under the excitation of the laser beam. The released ions were identified with mass spectrometer. The detection levels were 2.68 ng/mm^2 (FIGS. 25A-D). To visualize the lateralized drug transfer through the brain the brain was sectioned into olfactory bulb, striatum and cerebrum sections (FIG. 26) and imaged with the Mass Spectrometry Imaging (MSI) system.
The images shown in FIGS. 27A-C were analyzed to estimate the relative concentration of oxytocin on each side of the brain. Image data was converted into a standard RGB color-map, with each of the red (R), green (G), and blue (B) values taking a value between 0 and 255. Pixels with B-values exceeding 180 were counted on each side of the brain, yielding the results in Table 1.

`CC[C@H](C)[C@@H]1NC(=O)[C@H](Cc2ccc(O)cc2)NC(=O)[C@@H](N)CSSC[C@@H](C(=O)N2CCC[C@H]2C(=O)N[C@@H](CC(C)C)C(=O)NCC(N)=O)NC(=O)[C@H](CC(N)=O)NC(=O)[C@H](CCC(N)=O)NC1=O` [oxytocin, Oxytocin]: the “ratio of blue pixels, targeted over untargeted half of the brain” value by setting is: (Cerebrum, 921/638) 1.44; (Olfactory, 962/475) 2.03; (Striatum, 7055/4085) 1.73. The “Blue Pixel Count (intensity corresponding to oxytocin)” value by setting is: (Cerebrum, Left hemisphere (untargeted)) 638; (Cerebrum, Right hemisphere (targeted)) 921; (Olfactory, Left hemisphere (untargeted)) 475; (Olfactory, Right hemisphere (targeted)) 962; (Striatum, Left hemisphere (untargeted)) 4085; (Striatum, Right hemisphere (targeted)) 7055. In addition, for the setting “across the three studied regions (Cerebrum, Olfactory, Striatum)”, the “excess drug concentration on the targeted side of the brain” value is 44-103%. In addition, where the note is “cerebrum slice”, the “distribution of oxytocin by MSI (FIG. 27C)” value is on record as “lateralization coinciding with the targeted (right) hemisphere”. In addition, the “distribution of oxytocin by MSI (FIG. 27A)” value (olfactory bulb slice) was “preferential right side distribution”. The “distribution of oxytocin by MSI (FIG. 27B)” value (striatum slice) is recorded as “continued preferential right side distribution”.
